Experimental data as given in patent US7119105B2, “Methods for treating neurodegenerative disorders using aspartyl protease inhibitors” (The Regents of the University of California, priority 1997, dated 2006).
Like-named read-outs stand apart in the source and are kept apart here.

Columns and labels:
human liver cathepsin D = target: T1, human liver cathepsin D (Homo sapiens, UniProt P07339); assay: High-throughput fluorometric cathepsin D assay (library screen); type: biochemical; settings: for inhibition at 0.1 µM: 100 nM inhibitor; for inhibition at 0.33 µM: read-out: Inhibition of Cathepsin D in Library Screen
T1 construct: human liver cathepsin D (Calbiochem); purchased Calbiochem; host or cells: human liver
Text: Compounds capable of inhibiting cathepsin D can readily be identified using the assays described herein which measure a change in the hydrolysis of a peptide substrate. More particularly, a fluorometric high through-put assay for activity toward human liver cathepsin D (Calbiochem) can be used to screen the compounds of the present invention for their ability to inhibit cathepsin D. This assay was previously described by G. A. Kraft, et al., Methods Enzymol. 241, 70-86 (1994), the teachings of which are incorporated herein by reference. […] T. Baldwin, et al., Proc. Natl. Acad. Sci., U.S.A. 90, 6796-6800 (1993)). Generally, the reactants are mixed, the reaction is allowed to proceed for a specific period of time and the fluorescence of the reaction products is monitored to determine the extent to which the peptide substrate has been cleaved. […] 241, 70-86 (1994). As such, following the methods of the present invention, compounds can be readily synthesized and screened to identify compounds that inhibit cathepsin D. Briefly, a fluorometric high through-put assay for activity toward human liver cathepsin D (Calbiochem) was performed in 96-well microtiter plates (G. A. Krafft, et al., Methods Enymol. 241, 70-86 (1994)). […] T. Baldwin, et al., Proc. Natl. Acad. Sci., U.S.A. 90, 6796-6800 (1993)). The assay was performed in […] Microfluor fluorescence microtiter plates, and readings were taken on a Perkin-Elmer LS-50B with an attached 96-well plate reader. The excitation wavelength was 340 nm. A 340 nm interference filter (Hoya, U-340) for excitation and a 430 nm cut-off filter for emission were used. […] The fluorescent unit readings were taken at three time points within the linear region of the substrate cleavage, and percent activity of the enzyme was determined by comparing the change of fluorescent units (FU) for each well to the average change in FU for six control wells without inhibitor.

cathepsin D = cathepsin D (Homo sapiens, UniProt P07339); assay: Cathepsin D cuvette assay for IC50 and inhibition constants (Ki); type: biochemical
Text: Compounds capable of inhibiting cathepsin D can readily be identified using the assays described herein which measure a change in the hydrolysis of a peptide substrate. More particularly, a fluorometric high through-put assay for activity toward human liver cathepsin D (Calbiochem) can be used to screen the compounds of the present invention for their ability to inhibit cathepsin D. This assay was previously described by G. A. Kraft, et al., Methods Enzymol. 241, 70-86 (1994), the teachings of which are incorporated herein by reference. […] T. Baldwin, et al., Proc. Natl. Acad. […] Generally, the reactants are mixed, the reaction is allowed to proceed for a specific period of time and the fluorescence of the reaction products is monitored to determine the extent to which the peptide substrate has been cleaved. […] 241, 70-86 (1994). As such, following the methods of the present invention, compounds can be readily synthesized and screened to identify compounds that inhibit cathepsin D. [table]

[1] = crude compound, approximate concentration
[2] = 330 nM inhibitor, crude compound, approximate concentration
[3] = Table IV, substrate 2.5 μM, cathepsin D 10 nM, Ki ≈ IC50 − Et/2
[4] = Table V second generation, conditions as Table IV
[5] = Table V second generation, conditions as Table IV, Ki ≈ IC50 − Et/2
[6] = Table VI, P1-varied 204 compound library, purified

Chain of cathepsin D (P07339 65-412): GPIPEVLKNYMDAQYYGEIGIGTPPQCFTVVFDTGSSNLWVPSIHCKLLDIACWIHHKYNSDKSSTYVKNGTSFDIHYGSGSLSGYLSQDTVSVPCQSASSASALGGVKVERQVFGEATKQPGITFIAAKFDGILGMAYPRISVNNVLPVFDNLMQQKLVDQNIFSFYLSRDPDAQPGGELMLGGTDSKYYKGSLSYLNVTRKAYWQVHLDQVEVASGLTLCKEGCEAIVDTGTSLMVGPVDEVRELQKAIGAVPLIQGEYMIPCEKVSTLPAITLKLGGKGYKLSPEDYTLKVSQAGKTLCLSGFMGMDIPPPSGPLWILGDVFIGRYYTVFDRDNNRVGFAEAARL
T1 sequence (P07339 169-412 limits assumed): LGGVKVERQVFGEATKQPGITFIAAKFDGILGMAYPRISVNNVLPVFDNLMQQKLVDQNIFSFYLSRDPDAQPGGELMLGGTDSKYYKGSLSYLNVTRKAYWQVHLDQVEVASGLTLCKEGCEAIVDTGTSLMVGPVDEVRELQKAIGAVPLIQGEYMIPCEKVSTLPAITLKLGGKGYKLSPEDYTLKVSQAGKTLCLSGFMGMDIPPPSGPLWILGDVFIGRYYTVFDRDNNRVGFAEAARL
T1 sequence (P07339 65-162 limits assumed): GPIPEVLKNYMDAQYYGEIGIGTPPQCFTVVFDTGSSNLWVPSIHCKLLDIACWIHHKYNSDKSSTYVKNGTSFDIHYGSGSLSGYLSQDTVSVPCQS

O=C(CCn1c(=O)oc2ccccc21)N[C@@H](Cc1ccccc1)[C@@H](O)CN(CCc1ccc2c(c1)OCO2)C(=O)COc1c(Cl)cc(Cl)cc1Cl [EAA]
inhibition at 0.1 µM (human liver cathepsin D; [1]): ≥ 50%
inhibition at 0.33 µM (human liver cathepsin D; [2]): ≥ 50%

COc1ccc(C(=O)N[C@@H](Cc2ccccc2)[C@@H](O)CN(CCc2ccc3c(c2)OCO3)C(=O)COc2c(Cl)cc(Cl)cc2Cl)c(Cl)c1OC [EAJ]
inhibition at 0.33 µM (human liver cathepsin D; [2]): ≥ 50%

O=C(N[C@@H](Cc1ccccc1)[C@@H](O)CN(CCc1ccc2c(c1)OCO2)C(=O)/C=C/c1cc2c(cc1Br)OCO2)c1ccc([N+](=O)[O-])cc1Cl [EEF]
inhibition at 0.33 µM (human liver cathepsin D; [2]): ≥ 50%

O=C(CCn1c(=O)oc2ccccc21)N[C@@H](Cc1ccccc1)[C@@H](O)CN(CCc1ccc2c(c1)OCO2)C(=O)CCc1ccc(Cl)c(Cl)c1 [EFA]
Ki (cathepsin D; [3]): 171 ± 25 nM
inhibition at 0.1 µM (human liver cathepsin D; [1]): ≥ 50%
inhibition at 0.33 µM (human liver cathepsin D; [2]): ≥ 50%

O=C(COc1cc(Cl)c(Cl)cc1Cl)N[C@@H](Cc1ccccc1)[C@@H](O)CN(CCc1ccc2c(c1)OCO2)C(=O)CCc1ccc(Cl)c(Cl)c1 [EFD]
inhibition at 0.33 µM (human liver cathepsin D; [2]): ≥ 50%

O=C(CCN1C(=O)c2ccccc2C1=O)N[C@@H](Cc1ccccc1)[C@@H](O)CN(CCc1ccc2c(c1)OCO2)C(=O)CCc1ccc(Cl)c(Cl)c1 [EFH]
inhibition at 0.33 µM (human liver cathepsin D; [2]): ≥ 50%

O=C(CCc1ccc2c(c1)OCO2)N[C@@H](Cc1ccccc1)[C@@H](O)CN(CCc1ccc2c(c1)OCO2)C(=O)CCc1ccc(Cl)c(Cl)c1 [EFI]
inhibition at 0.33 µM (human liver cathepsin D; [2]): ≥ 50%

COc1ccc(C(=O)N[C@@H](Cc2ccccc2)[C@@H](O)CN(CCc2ccc3c(c2)OCO3)C(=O)CCc2ccc(Cl)c(Cl)c2)c(Cl)c1OC [EFJ]
inhibition at 0.33 µM (human liver cathepsin D; [2]): ≥ 50%

COc1ccc(C(=O)N[C@@H](Cc2ccccc2)[C@@H](O)CN(CCc2ccc3c(c2)OCO3)C(=O)/C=C/c2c(Cl)cccc2Cl)c(Cl)c1OC [EGJ]
inhibition at 0.33 µM (human liver cathepsin D; [2]): ≥ 50%

O=C(CCn1c(=O)oc2ccccc21)N[C@@H](Cc1ccccc1)[C@@H](O)CN(CCc1ccc2c(c1)OCO2)C(=O)CCN1C(=O)c2ccccc2C1=O [EHA]
Ki (cathepsin D; [3]): 131 ± 12 nM
inhibition at 0.1 µM (human liver cathepsin D; [1]): ≥ 50%
inhibition at 0.33 µM (human liver cathepsin D; [2]): ≥ 50%

O=C(/C=C/c1c(Cl)cccc1Cl)N[C@@H](Cc1ccccc1)[C@@H](O)CN(CCc1ccc2c(c1)OCO2)C(=O)CCN1C(=O)c2ccccc2C1=O [EHB]
inhibition at 0.33 µM (human liver cathepsin D; [2]): ≥ 50%

O=C(COc1cc(Cl)c(Cl)cc1Cl)N[C@@H](Cc1ccccc1)[C@@H](O)CN(CCc1ccc2c(c1)OCO2)C(=O)CCN1C(=O)c2ccccc2C1=O [EHD]
Ki (cathepsin D; [3]): 73 ± 9 nM
inhibition at 0.1 µM (human liver cathepsin D; [1]): ≥ 50%
inhibition at 0.33 µM (human liver cathepsin D; [2]): ≥ 50%

O=C(N[C@@H](Cc1ccccc1)[C@@H](O)CN(CCc1ccc2c(c1)OCO2)C(=O)CCN1C(=O)c2ccccc2C1=O)c1ccc([N+](=O)[O-])cc1Cl [EHF]
inhibition at 0.33 µM (human liver cathepsin D): ≥ 50%

O=C(CCN1C(=O)c2ccccc2C1=O)N[C@@H](Cc1ccccc1)[C@@H](O)CN(CCc1ccc2c(c1)OCO2)C(=O)CCN1C(=O)c2ccccc2C1=O [EHH]
inhibition at 0.33 µM (human liver cathepsin D; [2]): ≥ 50%

O=C(CCc1ccc2c(c1)OCO2)N[C@@H](Cc1ccccc1)[C@@H](O)CN(CCc1ccc2c(c1)OCO2)C(=O)CCN1C(=O)c2ccccc2C1=O [EHI]
inhibition at 0.1 µM (human liver cathepsin D; [1]): ≥ 50%
inhibition at 0.33 µM (human liver cathepsin D; [2]): ≥ 50%

COc1ccc(C(=O)N[C@@H](Cc2ccccc2)[C@@H](O)CN(CCc2ccc3c(c2)OCO3)C(=O)CCN2C(=O)c3ccccc3C2=O)c(Cl)c1OC [EHJ]
Ki (cathepsin D; [3]): 111 ± 8 nM
inhibition at 0.1 µM (human liver cathepsin D; [1]): ≥ 50%
inhibition at 0.33 µM (human liver cathepsin D; [2]): ≥ 50%

O=C(COc1ccc(Cl)cc1Cl)N[C@@H](Cc1ccccc1)[C@@H](O)CN(CCc1ccc2c(c1)OCO2)C(=O)CCN1C(=O)c2ccccc2C1=O [EHM]
IC50 (cathepsin D; [4]): 14 ± 2 nM
Ki (cathepsin D; [5]): 9 nM

O=C(COc1ccc(Cl)c(Cl)c1)N[C@@H](Cc1ccccc1)[C@@H](O)CN(CCc1ccc2c(c1)OCO2)C(=O)CCN1C(=O)c2ccccc2C1=O [EHO]
IC50 (cathepsin D; [4]): 19 ± 2 nM
Ki (cathepsin D; [5]): 15 nM

O=C(COc1cccc(Cl)c1)N[C@@H](Cc1ccccc1)[C@@H](O)CN(CCc1ccc2c(c1)OCO2)C(=O)CCN1C(=O)c2ccccc2C1=O [EHR]
IC50 (cathepsin D; [4]): 20 ± 2 nM
Ki (cathepsin D; [5]): 15 nM

COc1cc(Br)c(C(=O)N[C@@H](Cc2ccccc2)[C@@H](O)CN(CCc2ccc3c(c2)OCO3)C(=O)CCN2C(=O)c3ccccc3C2=O)cc1OC [EHS]
IC50 (cathepsin D; [4]): 64 ± 6 nM
Ki (cathepsin D; [5]): 59 nM

O=C(CCn1c(=O)oc2ccccc21)N[C@@H](Cc1ccccc1)[C@@H](O)CN(CCc1ccc(Cl)cc1Cl)C(=O)COc1c(Cl)cc(Cl)cc1Cl [FAA]
inhibition at 0.33 µM (human liver cathepsin D; [2]): ≥ 50%

O=C(CCN1C(=O)c2ccccc2C1=O)N[C@@H](Cc1ccccc1)[C@@H](O)CN(CCc1ccc(Cl)cc1Cl)C(=O)COc1c(Cl)cc(Cl)cc1Cl [FAH]
inhibition at 0.33 µM (human liver cathepsin D; [2]): ≥ 50%

O=C(CCn1c(=O)oc2ccccc21)N[C@@H](Cc1ccccc1)[C@@H](O)CN(CCc1ccc(Cl)cc1Cl)C(=O)CCc1ccc(Cl)c(Cl)c1 [FFA]
inhibition at 0.33 µM (human liver cathepsin D; [2]): ≥ 50%

O=C(CCN1C(=O)c2ccccc2C1=O)N[C@@H](Cc1ccccc1)[C@@H](O)CN(CCc1ccc(Cl)cc1Cl)C(=O)CCc1ccc(Cl)c(Cl)c1 [FFH]
inhibition at 0.33 µM (human liver cathepsin D; [2]): ≥ 50%

O=C(CCn1c(=O)oc2ccccc21)N[C@@H](Cc1ccccc1)[C@@H](O)CN(CCc1ccc(Cl)cc1Cl)C(=O)CCN1C(=O)c2ccccc2C1=O [FHA]
Ki (cathepsin D; [3]): 231 ± 31 nM
inhibition at 0.1 µM (human liver cathepsin D; [1]): ≥ 50%
inhibition at 0.33 µM (human liver cathepsin D; [2]): ≥ 50%

O=C(N[C@@H](Cc1ccccc1)[C@@H](O)CN(CCc1ccc(Cl)cc1Cl)C(=O)CCN1C(=O)c2ccccc2C1=O)c1ccc([N+](=O)[O-])cc1Cl [FHF]
inhibition at 0.33 µM (human liver cathepsin D; [2]): ≥ 50%

COc1ccc(C(=O)N[C@@H](Cc2ccccc2)[C@@H](O)CN(CCc2ccc(Cl)cc2Cl)C(=O)CCN2C(=O)c3ccccc3C2=O)c(Cl)c1OC [FHJ]
inhibition at 0.33 µM (human liver cathepsin D; [2]): ≥ 50%

O=C(COc1ccc(Cl)c(Cl)c1)N[C@@H](Cc1ccccc1)[C@@H](O)CN(CCc1ccc(Cl)cc1Cl)C(=O)CCN1C(=O)c2ccccc2C1=O [FHO]
IC50 (cathepsin D; [4]): 18 ± 2 nM
Ki (cathepsin D; [5]): 14 nM

COc1cc(Br)c(C(=O)N[C@@H](Cc2ccc3ccccc3c2)[C@@H](O)CN(CCc2ccc(Cl)cc2Cl)C(=O)CCN2C(=O)c3ccccc3C2=O)cc1OC [Gbcf]
Ki (cathepsin D; [6]): 2.6 ± 0.2 nM

COc1cc(Br)c(C(=O)N[C@@H](Cc2cccc(Oc3ccccc3)c2)[C@@H](O)CN(CCc2ccc(Cl)cc2Cl)C(=O)CCN2C(=O)c3ccccc3C2=O)cc1OC [Kbcf]
Ki (cathepsin D; [6]): 1.9 ± 0.2 nM

COc1cc(Br)c(C(=O)N[C@@H](Cc2ccc(-c3ccccc3)cc2)C(O)CN(CCc2ccc(Cl)cc2Cl)C(=O)CCN2C(=O)c3ccccc3C2=O)cc1OC (stereo partly drawn) [Obcf]
Ki (cathepsin D; [6]): 2.6 ± 0.2 nM

COc1cc(Br)c(C(=O)N[C@@H](Cc2ccc(Br)cc2)[C@@H](O)CN(CCc2ccc(Cl)cc2Cl)C(=O)CCN2C(=O)c3ccccc3C2=O)cc1OC [Qbcf]
Ki (cathepsin D; [6]): 6.7 ± 0.7 nM

Cc1ccc(CCN(C[C@H](O)[C@H](Cc2ccccc2)NC(=O)COc2cc(Cl)c(Cl)cc2Cl)C(=O)CCN2C(=O)c3ccccc3C2=O)cc1 [UHD]
IC50 (cathepsin D; [4]): 229 ± 44 nM
Ki (cathepsin D; [5]): 224 nM
